The source of these data is patent US4257941A, “Polycyclic nitrogen-containing compounds” (BASF Aktiengesellschaft, priority 1976, dated 1981).

Type in all cases: in vivo
Assay [1] has as its system sunflowers. The experiment in a line: Action on sunflowers (Example 24). The following applies: for Plant height relative: control 100. The text has this: The active ingredients were applied both to the soil and to the leaves.
The next assay deals with rice. The assay is described as follows: Action on rice (Example 23). The following applies: leaf; for Plant height: 66 days; for Plant height relative: control 100. As to the method: At a growth height of 11 to 13 cm the active ingredients were sprayed onto the leaves in the usual manner. The plants were measured after 66 days.
For another assay, the system named is spring barley. The assay is described as follows: Stem length, lateral shoots and yield in spring barley (Example 12). As to conditions: for Ear weight relative / No. of lateral shoots relative / Stem length relative: control 100. As to the method:
To examine the effect of the various substances on spring barley up to the maturity stage of the plants, an experiment was carried out in large pots. The plants were grown in quartz sand (fertilized with 2 g N as ammonium nitrate in 3 doses, 1 g P2 O5 as secondary sodium phosphate, 1.5 g K2 O as potassium sulfate, 0.5 g MgO as magnesium sulfate, 10 ml of a solution of trace elements, and 10 mg of iron as an iron complex). […] The treated plants were up to 10% shorter than the control, and yields were also slightly up.

For a further assay, the system named is cotton. The assay is described as follows: Induction of flowering and growth height of cotton, hydroponic (Example 18). The following applies: for Shoot length: 4 weeks; for No. of squares per vessel (3 plants): control 0, average of 3 vessels; for Shoot length rel.: control 100. As to the method: Cotton plants were subjected to hydroponic treatment under the same conditions as in Example 16. The active ingredients were added (1.25 mg/vessel=0.3 ppm and 5 mg/vessel=1.25 ppm) at a height of the plant of 15 to 18 cm. […] The results below are averages from 3 vessels, each of 3 plants.

A further assay concerns soybeans. The assay is described as follows: Action on soybeans, hydroponic (Example 17a). The following applies: for Root dry substance rel. / Root length rel. / Shoot dry substance rel. / Shoot length rel.: control 100. As to the method:
(§1) Young soybean plants grown in quartz sand were transferred to hydroponic treatment in 4 liter vessels and provided with a sufficient supply of nutrient solution and trace elements. The active ingredients were added (0.25 mg/vessel=0.06 ppm; 1.0 mg/vessel=0.25 ppm; 2.5 mg/vessel=0.63 ppm) at a plant height of approx. 22 cm. The plants were in continuous contact with the active ingredients. […] The roots were also shorter, but the plants had more and stronger shoots.
(§2) The action on soybeans, field beans and sunflowers was examined under the same conditions as in Example 16. The shoots and roots of all 3 crop plants were considerably shortened. Whereas in the shoots the dry substance was reduced commensurately with the shortening, the dry substance in the roots rose (particularly in soybeans) as the concentration increased.

For the next assay, the system named is field beans. The assay is described as follows: Action on field beans, hydroponic (Example 17b). As to conditions: for Root dry substance rel. / Root length rel. / Shoot dry substance rel. / Shoot length rel.: control 100. As to the method:
as §1, §2

Assay [2] deals with sunflowers. The assay is described as follows: Action on sunflowers, hydroponic (Example 17c). The following applies: for Root dry substance rel. / Root length rel. / Shoot dry substance rel. / Shoot length rel.: control 100. As to the method: as §1, §2

In the assay on sunflowers [1] (soil, 3.0 kg/ha), `Clc1ccc(N2N=NC3C4CC(C5N=NC45)C32)cc1` (stereo not drawn) [drawing 406] registered a Plant height of 26.5 cm and a Plant height relative of 73. In the assay on sunflowers [1] (soil, 12.0 kg/ha), the Plant height is recorded as 15.5 cm and the Plant height relative worked out at 43.
Regarding `Clc1ccc(N2N=NC3C4CC(C5N=NC45)C32)cc1` (stereo not drawn) [drawing 404], the Plant height came to 35.0 cm with rice (1.0 kg/ha), 33.0 cm in the assay with rice (2.0 kg/ha), 29.5 cm in the assay on rice (4.0 kg/ha) and 28.5 cm in the assay with rice (6.0 kg/ha). Moreover, the Plant height relative with rice (1.0 kg/ha) was found to be 86.2; in the assay with rice (2.0 kg/ha), 81.3; with rice (4.0 kg/ha), 72.7; with rice (6.0 kg/ha) it was 70.2.
As to `Clc1ccc(N2N=NC3C4CC(C5N=NC45)C32)cc1` (stereo not drawn) [drawing 408], the Plant height relative is given as 78 in the assay on sunflowers [1] (leaf, 1.5 kg/ha) and 67 in the assay with sunflowers [1] (leaf, 6.0 kg/ha). For the same compound, the Plant height in the assay with sunflowers [1] (leaf, 6.0 kg/ha) was found to be 25.5 cm.
In the case of `Brc1ccc(N2N=NC3C4CC(C5N=NC45)C32)cc1` (stereo not drawn) [drawing 405], the Plant height with rice (1.0 kg/ha) was 37.0 cm; in the assay on rice (2.0 kg/ha) it was 37.0 cm; in the assay with rice (4.0 kg/ha) it was 34.5 cm; in the assay on rice (6.0 kg/ha), 33.5 cm. The Plant height relative in the assay with rice (1.0 kg/ha) was determined as 91.1; with rice (2.0 kg/ha), 91.1; in the assay on rice (4.0 kg/ha) it was 85.0; in the assay on rice (6.0 kg/ha), 82.5.
In the case of `Brc1ccc(N2N=NC3C4CC(C5N=NC45)C32)cc1` (stereo not drawn) [drawing 409], the Plant height in the assay with sunflowers [1] (leaf, 1.5 kg/ha) was 33.0 cm; in the assay with sunflowers [1] (leaf, 6.0 kg/ha), 30.0 cm. Moreover, the Plant height relative is reported as 86 in the assay on sunflowers [1] (leaf, 1.5 kg/ha) and 78 with sunflowers [1] (leaf, 6.0 kg/ha).
Regarding `Clc1ccc(N2N=NC3C4CC(C5N=NC45)C32)cc1` (stereo not drawn) [drawing 377], in the assay on spring barley (0.5 kg/ha), the Ear weight came out at 91.5 g, the “No. of lateral shoots” value was 105, the Stem length came out at 74.1 cm and the Ear weight relative amounted to 101.2. Besides, in the assay with spring barley (0.5 kg/ha), the “No. of lateral shoots relative” value is reported as 112.9 and the Stem length relative is recorded as 96.4. Further, in the assay with spring barley (1.5 kg/ha), the Ear weight amounted to 94.8 g, the “No. of lateral shoots” value is given as 111, the Stem length was 69.7 cm and the Ear weight relative is 104.9. In the assay on spring barley (1.5 kg/ha), the “No. of lateral shoots relative” value turned out to be 119.4 and the Stem length relative worked out at 90.6.
As for `Brc1ccc(N2N=NC3C4CC(C5N=NC45)C32)cc1` (stereo not drawn) [drawing 407], the Plant height relative in the assay on sunflowers [1] (soil, 3.0 kg/ha) turned out to be 84. In the assay on sunflowers [1] (soil, 12.0 kg/ha), this compound came in with a Plant height of 22.5 cm and a Plant height relative of 62.
With `Brc1ccc(N2N=NC3C4CC(C5N=NC45)C32)cc1` (stereo not drawn) [drawing 392], in the assay with cotton (0.3 ppm), the Shoot length worked out at 41.9 cm, the “No. of squares per vessel (3 plants)” value was determined as 2.6 and the Shoot length rel. was 88.8. Besides, in the assay with cotton (1.25 ppm), the Shoot length was found to be 30.9 cm, the “No. of squares per vessel (3 plants)” value came out at 8.3 and the Shoot length rel. is given as 65.5.
In the assay with soybeans (0.06 ppm), `Brc1ccc(N2N=NC3C4CC(C5N=NC45)C32)cc1` (stereo not drawn) [drawing 388] had a Root dry substance of 1.5 g, a Root length of 21.7 cm, a Shoot dry substance of 5.4 g and a Shoot length of 33.0 cm. Also, in the assay with soybeans (0.06 ppm), the “Root dry substance rel.” value is on record as 136.4, the Root length rel. came out at 75.6, the “Shoot dry substance rel.” value was found to be 93.1 and the Shoot length rel. came out at 89.9. In the assay with soybeans (0.25 ppm), this compound came in with a Root dry substance of 1.5 g, a Root length of 20.0 cm, a Shoot dry substance of 4.9 g and a Shoot length of 21.7 cm. Moreover, in the assay on soybeans (0.25 ppm), the “Root dry substance rel.” value was found to be 136.4, the Root length rel. is given as 69.7, the “Shoot dry substance rel.” value was determined as 84.5 and the Shoot length rel. is on record as 59.1. Moreover, in the assay on soybeans (0.63 ppm), the Root dry substance was determined as 2.1 g, the Root length amounted to 20.0 cm, the Shoot dry substance came out at 3.9 g and the Shoot length is listed as 19.0 cm. Also, in the assay on soybeans (0.63 ppm), the “Root dry substance rel.” value is given as 190.9, the Root length rel. turned out to be 69.7, the “Shoot dry substance rel.” value stood at 67.2 and the Shoot length rel. is 51.8.
In the assay with field beans (0.06 ppm), `Brc1ccc(N2N=NC3C4CC(C5N=NC45)C32)cc1` (stereo not drawn) [drawing 389] showed a Root dry substance of 3.8 g, a Root length of 28.3 cm, a Shoot dry substance of 14.5 g and a Shoot length of 69.7 cm. Moreover, in the assay with field beans (0.06 ppm), the “Root dry substance rel.” value came out at 63.3, the Root length rel. turned out to be 68.5, the “Shoot dry substance rel.” value is recorded as 85.8 and the Shoot length rel. was found to be 95.5. In the assay on field beans (0.25 ppm), this compound gave a Root dry substance of 5.3 g, a Root length of 28.3 cm, a Shoot dry substance of 14.5 g and a Shoot length of 67.3 cm. In addition, in the assay on field beans (0.25 ppm), the “Root dry substance rel.” value amounted to 85.5, the Root length rel. was found to be 68.5, the “Shoot dry substance rel.” value amounted to 85.8 and the Shoot length rel. was 92.2. In the assay on field beans (0.63 ppm), this compound came in with a Root dry substance of 6.0 g, a Root length of 25.0 cm, a Shoot dry substance of 13.0 g and a Shoot length of 56.7 cm. Also, in the assay with field beans (0.63 ppm), the “Root dry substance rel.” value was determined as 96.8, the Root length rel. is 60.5, the “Shoot dry substance rel.” value came out at 76.9 and the Shoot length rel. is listed as 77.7.
Turning to `Brc1ccc(N2N=NC3C4CC(C5N=NC45)C32)cc1` (stereo not drawn) [drawing 390], in the assay with sunflowers [2] (0.06 ppm), the Root dry substance turned out to be 1.5 g, the Root length came to 18.7 cm, the Shoot dry substance worked out at 6.3 g and the Shoot length came to 35.0 cm. In the assay with sunflowers [2] (0.06 ppm), the “Root dry substance rel.” value turned out to be 100, the Root length rel. was 93.5, the “Shoot dry substance rel.” value is on record as 98.4 and the Shoot length rel. is 84.7. In the assay on sunflowers [2] (0.25 ppm), this compound returned a Root dry substance of 1.4 g, a Root length of 16.7 cm, a Shoot dry substance of 5.3 g and a Shoot length of 27.3 cm. Moreover, in the assay with sunflowers [2] (0.25 ppm), the “Root dry substance rel.” value is reported as 93.3, the Root length rel. was 83.5, the “Shoot dry substance rel.” value is 82.8 and the Shoot length rel. is 66.1. Moreover, in the assay on sunflowers [2] (0.63 ppm), the Root dry substance is listed as 1.6 g, the Root length was 12.7 cm, the Shoot dry substance is reported as 5.2 g and the Shoot length turned out to be 27.3 cm. Further, in the assay on sunflowers [2] (0.63 ppm), the “Root dry substance rel.” value came out at 106.7, the Root length rel. is listed as 63.5, the “Shoot dry substance rel.” value was 81.3 and the Shoot length rel. is reported as 66.1.
As to `Clc1ccc(N2N=NC3C4CC(C5N=NC45)C32)cc1` (stereo not drawn) [drawing 391], in the assay with cotton (0.3 ppm), the Shoot length came to 40.2 cm, the “No. of squares per vessel (3 plants)” value is listed as 4.0 and the Shoot length rel. is given as 85.2. Besides, in the assay with cotton (1.25 ppm), the Shoot length amounted to 27.8 cm, the “No. of squares per vessel (3 plants)” value amounted to 8.7 and the Shoot length rel. is listed as 58.9.
